Test results: PubChem BioAssay (NCI)
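96-well plates; 48 h exposure; 5 concentrations. Endpoints by linear interpolation between flanking doses. Not reached: highest tested concentration assigned. GI50 is the concentration that inhibits growth by half. TGI marks complete inhibition of growth.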

Assays:
Assay in all cases: DTP human tumour cell line panel, 48 h
SNB-19 CNS = tested on: SNB-19 CNS
HCT-15 colon = tested on: HCT-15 colon
HT29 colon = tested on: HT29 colon
SN12C renal = tested on: SN12C renal
COLO 205 colon = tested on: COLO 205 colon
IGROV1 ovarian = tested on: IGROV1 ovarian
M14 melanoma = tested on: M14 melanoma
OVCAR-3 ovarian = tested on: OVCAR-3 ovarian
SF-295 CNS = tested on: SF-295 CNS
MDA-MB-435 = tested on: MDA-MB-435

| Structure (SMILES) | TGI (SNB-19 CNS) | TGI (HCT-15 colon) | TGI (HT29 colon) | TGI (SN12C renal) | TGI (COLO 205 colon) | TGI (IGROV1 ovarian) | TGI (M14 melanoma) | TGI (OVCAR-3 ovarian) | TGI (SF-295 CNS) | GI50 (SNB-19 CNS) | GI50 (HCT-15 colon) | GI50 (HT29 colon) | GI50 (SN12C renal) | GI50 (COLO 205 colon) | GI50 (MDA-MB-435) | TGI (MDA-MB-435) | GI50 (IGROV1 ovarian) | GI50 (M14 melanoma) | GI50 (OVCAR-3 ovarian) | GI50 (SF-295 CNS) |
| --- | --- | --- | --- | --- | --- | --- | --- | --- | --- | --- | --- | --- | --- | --- | --- | --- | --- | --- | --- | --- |
| O=C1C/C(=C/c2ccc(/C=C3/CC(=O)N(c4cccc(Br)c4)C3=O)cc2)C(=O)N1c1cccc(Br)c1 | > 100 µM | > 100 µM | > 100 µM | > 100 µM | > 100 µM | > 100 µM | > 100 µM | > 100 µM | > 100 µM | – | – | – | – | – | – | – | – | – | – | – |
| N#Cc1ncc(/N=C/c2ccc(N(CCCl)CCCl)cc2)s1 | > 100 µM | > 100 µM | > 100 µM | > 100 µM | > 100 µM | > 100 µM | > 100 µM | 45 µM | – | 77.7 µM | 21.8 µM | 72.8 µM | 8.28 µM | 64 µM | 28.4 µM | > 100 µM | 40.4 µM | 35.2 µM | 14.5 µM | – |
| COC(=O)c1[nH]c(=S)[nH]c(=O)c1-c1ccc(Cl)cc1 | > 50 µM | > 50 µM | > 50 µM | > 50 µM | > 50 µM | > 50 µM | > 50 µM | > 50 µM | > 50 µM | – | – | – | – | – | – | – | – | – | – | – |
| CCCC(O)[C@@H](O)c1ccc2c(c1O)C(=O)c1c(OC)cccc1C2=O (stereo partly specified) | > 100 µM | 82.5 µM | > 100 µM | > 100 µM | 44.8 µM | > 100 µM | 69.1 µM | > 100 µM | > 100 µM | – | – | – | – | – | – | – | – | – | – | – |
| Nc1cc(=O)[nH]c(SC2=NC(N)CC(O)C2)n1 (stereo unspecified) | > 100 µM | > 100 µM | > 100 µM | > 100 µM | > 100 µM | > 100 µM | > 100 µM | > 100 µM | > 100 µM | – | – | – | – | – | – | – | – | – | – | – |
| COc1ccc(Cn2nc(-c3cc(OC)c(OC)c(OC)c3)c3c2CCc2cnoc2-3)cc1OC | > 100 µM | > 100 µM | > 100 µM | > 100 µM | 23.4 µM | > 100 µM | 47.4 µM | 9.61 µM | – | 7.99 µM | 4.98 µM | 3.8 µM | 5.25 µM | 4.68 µM | – | – | 7.28 µM | 4.08 µM | 3.29 µM | – |
| CN(C)CCCNC(=O)c1cc(NC(=O)CCNS(=O)(=O)c2ccc3c(c2)C(=O)c2ccccc2C3=O)cn1C | > 100 µM | – | > 100 µM | > 100 µM | > 100 µM | > 100 µM | > 100 µM | > 100 µM | > 100 µM | > 100 µM | – | > 100 µM | > 100 µM | > 100 µM | > 100 µM | > 100 µM | > 100 µM | > 100 µM | > 100 µM | > 100 µM |
| Cc1ccc2[nH]c(C(=O)NN3C(=O)CSC34CCCCC4C)c(-c3ccccc3)c2c1 (stereo unspecified) | 42.6 µM | 39.1 µM | 36.9 µM | 34.2 µM | 48.9 µM | – | 37.7 µM | 30.1 µM | 31.9 µM | 19.2 µM | 18 µM | 14.4 µM | 17.7 µM | 20.4 µM | 17.9 µM | 34.7 µM | – | 19.5 µM | 13.9 µM | 16 µM |
